Measured values published in patent US8586611B2 (priority 2005, dated 2013).

Tests used:
Format in all cases: in vivo
Plasmopara viticola = assay: Test B: grape downy mildew, spray 24 h after inoculation (disease rating, 100 = 100% disease control); settings: spray 24 h after inoculation
In short: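 This is a curative spray test, applied 24 h after inoculation. Compounds in 50/50 acetone–water with 250 ppm Trem 014 surfactant were sprayed to run-off on P. viticola-infected seedlings, with 200 ppm equating to 500 g/ha. Plants were kept 5 days in a 20 °C growth chamber, then 24 h humid, and scored 0–100 for disease control relative to controls.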

Phytophthora infestans [1] = assay: whole plant or invertebrate; settings: tomato late blight, spray the day before inoculation
[2] = test system: Erysiphe graminis f. sp. tritici; assay: Test E: wheat powdery mildew, spray the day before inoculation (disease rating, 100 = 100% disease control); settings: spray the day before inoculation
In short: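 Protective test: spores of E. graminis f. sp. tritici dusted on wheat seedlings one day after run-off spraying of test suspension (acetone/water with 250 ppm surfactant; 200 ppm = 500 g/ha). Ratings after 7 days in growth chamber at 20° C, 100 = full control, 0 = none, relative to controls.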

Phytophthora infestans [3] = assay: whole plant or invertebrate; settings: tomato late blight, spray 17 h after inoculation
[4] = compounds without asterisk (not 40 or 10 ppm)

| Structure (SMILES) | Test B disease rating (100 = 100% disease control, 0 = no disease control) (Plasmopara viticola; [4]) [%] | Test C disease rating (100 = 100% disease control, 0 = no disease control) (Phytophthora infestans [1]; [4]) [%] | Test E disease rating (100 = 100% disease control, 0 = no disease control) [2, 4] [%] | Test D disease rating (100 = 100% disease control, 0 = no disease control) (Phytophthora infestans [3]; [4]) [%] | other results |
| --- | --- | --- | --- | --- | --- |
| CN(C(=O)c1csc(C2CCN(C(=O)Cc3ccccn3)CC2)n1)[C@@H]1CCCc2ccccc21 [compound 205] | 0 | 75 | 0 | 17 | – |
| Cc1cc(C(F)(F)F)nn1CC(=O)N1CCC(c2nc(C(=O)N(C)C3c4ccccc4CC3O)cs2)CC1 (centres unmarked) [compound 207] | 36 | 99 | 0 | 99 | – |
| CC(=O)OC1CCC(N(C)C(=O)c2csc(C3CCN(C(=O)Cn4nc(C(F)(F)F)cc4C)CC3)n2)c2ccccc21 (centres unmarked) [compound 212] | – | – | – | – | Test B disease rating (100 = 100% disease control, 0 = no disease control) (Plasmopara viticola; tested at 40 ppm): 97%; Test C disease rating (100 = 100% disease control, 0 = no disease control) (Phytophthora infestans [1]; tested at 40 ppm): 100%; Test E disease rating (100 = 100% disease control, 0 = no disease control) ([2]; tested at 40 ppm): 0%; Test D disease rating (100 = 100% disease control, 0 = no disease control) (Phytophthora infestans [3]; tested at 40 ppm): 99% |
| COC1CCC(N(C)C(=O)c2csc(C3CCN(C(=O)Cn4nc(C(F)(F)F)cc4C)CC3)n2)c2ccccc21 (centres unmarked) [compound 213] | – | – | – | – | Test B disease rating (100 = 100% disease control, 0 = no disease control) (Plasmopara viticola; tested at 40 ppm): 99%; Test C disease rating (100 = 100% disease control, 0 = no disease control) (Phytophthora infestans [1]; tested at 40 ppm): 100%; Test E disease rating (100 = 100% disease control, 0 = no disease control) ([2]; tested at 40 ppm): 0%; Test D disease rating (100 = 100% disease control, 0 = no disease control) (Phytophthora infestans [3]; tested at 40 ppm): 99% |
| CN(C(=O)c1csc(C2CCN(C(=O)Cc3cccc(Cl)n3)CC2)n1)[C@@H]1CCCc2ccccc21 [compound 214] | 98 | 99 | 0 | 99 | – |
| Cc1cc(C)nc(CC(=O)N2CCC(c3nc(C(=O)N(C)[C@@H]4CCCc5ccccc54)cs3)CC2)c1 [compound 215] | 0 | 100 | 0 | 99 | – |
| Cc1cc(C(F)(F)F)nn1CC(=O)N1CCC(c2noc(C(=O)N(C)[C@H](C)c3ccccc3)n2)CC1 [compound 216] | 72 | 95 | 0 | 16 | – |
| Cc1cc(C(F)(F)F)nn1CC(=O)N1CCC(n2cc(C(=O)N(C)[C@@H]3CCCc4ccccc43)nn2)CC1 [compound 217] | 52 | 99 | 0 | 40 | – |
| CNC(=O)OC1CCC(N(C)C(=O)c2csc(C3CCN(C(=O)Cn4nc(C(F)(F)F)cc4C)CC3)n2)c2ccccc21 (centres unmarked) [compound 219] | 69 | 99 | 0 | 99 | – |
| Cc1cc(C(F)(F)F)nn1CC(=O)N1CCC(c2nc(C(=O)N(C)C3CCc4cc(Cl)ccc43)cs2)CC1 (centres unmarked) [compound 221] | – | – | – | – | Test B disease rating (100 = 100% disease control, 0 = no disease control) (Plasmopara viticola; tested at 10 ppm): 77%; Test C disease rating (100 = 100% disease control, 0 = no disease control) (Phytophthora infestans [1]; tested at 10 ppm): 99%; Test E disease rating (100 = 100% disease control, 0 = no disease control) ([2]; tested at 10 ppm): 0%; Test D disease rating (100 = 100% disease control, 0 = no disease control) (Phytophthora infestans [3]; tested at 10 ppm): 98% |
| Cc1cc(C(F)(F)F)nn1CC(=O)N1CCC(c2csc(C(=O)N(C)[C@@H]3CCCc4ccccc43)n2)CC1 [compound 223] | – | – | – | – | Test B disease rating (100 = 100% disease control, 0 = no disease control) (Plasmopara viticola; tested at 40 ppm): 99%; Test C disease rating (100 = 100% disease control, 0 = no disease control) (Phytophthora infestans [1]; tested at 40 ppm): 100%; Test E disease rating (100 = 100% disease control, 0 = no disease control) ([2]; tested at 40 ppm): 0%; Test D disease rating (100 = 100% disease control, 0 = no disease control) (Phytophthora infestans [3]; tested at 40 ppm): 99% |
